Measurements published in PubChem BioAssay AID2060898 (Molecular Pharmacology Branch, DTP, NCI, 2025).

System: 616215-338-R-J1-PDC complex spheroid viability
Assay: Anticancer human tumor 616215-338-R-J1-PDC patient-derived colon adenocarcinoma cell line growth inhibition [RAS]
Details: for IC50: curve of first compound; for viability, T/C: stronger effect = lower value
Method in brief: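 Tumour cells grown as complex spheroids with HUVEC endothelial cells and mesenchymal stem cells, treated with RAS pathway inhibitor combinations. Each agent spans half-log steps from near clinical Cmax, or 10 microM where Cmax is unknown.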
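Also: spheroids exposed to agents for seven days before viability readout.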
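For viability, T/C in this document: 100% = DMSO vehicle control viability.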

CCC(CC)c1cc(NC2CCC(N)C2)n2nccc2n1 (centres undefined) + CCn1c(-c2cccnc2C(C)OC)c2c3cc(ccc31)N1CCOC(CC(NC(=O)C(C(C)C)N(C)C(=O)C3(F)CCN(C(=O)C#CC(C)(C)N(C)C)CC3)C(=O)N3CCCC(N3)C(=O)OCC(C)(C)C2)C1
IC50 (second compound 0.000949 µM): 1820 nM | IC50 (second compound 0.003 µM): 1760 nM | IC50 (second compound 0.00949 µM): 1770 nM | IC50 (second compound 0.03 µM): 1770 nM | IC50 (second compound 0.0949 µM): 1810 nM | IC50 (second compound 0.3 µM): 1570 nM | viability, T/C (second compound 0.000949 µM, first compound 0.0316 µM): 107% | viability, T/C (second compound 0.000949 µM, first compound 0.1 µM): 89.4% | viability, T/C (second compound 0.000949 µM, first compound 0.316 µM): 109% | viability, T/C (second compound 0.000949 µM, first compound 1 µM): 107% | viability, T/C (second compound 0.000949 µM, first compound 3.16 µM): 0.55% | viability, T/C (second compound 0.000949 µM, first compound 10 µM): 0.29% | viability, T/C (second compound 0.003 µM, first compound 0.0316 µM): 101% | viability, T/C (second compound 0.003 µM, first compound 0.1 µM): 94.6% | viability, T/C (second compound 0.003 µM, first compound 0.316 µM): 89.1% | viability, T/C (second compound 0.003 µM, first compound 1 µM): 106% | viability, T/C (second compound 0.003 µM, first compound 3.16 µM): 0.5% | viability, T/C (second compound 0.003 µM, first compound 10 µM): 0.26% | viability, T/C (second compound 0.00949 µM, first compound 0.0316 µM): 92.2% | viability, T/C (second compound 0.00949 µM, first compound 0.1 µM): 92.8% | viability, T/C (second compound 0.00949 µM, first compound 0.316 µM): 101% | viability, T/C (second compound 0.00949 µM, first compound 1 µM): 111% | viability, T/C (second compound 0.00949 µM, first compound 3.16 µM): 0.46% | viability, T/C (second compound 0.00949 µM, first compound 10 µM): 0.26% | viability, T/C (second compound 0.03 µM, first compound 0.0316 µM): 101% | viability, T/C (second compound 0.03 µM, first compound 0.1 µM): 93.3% | viability, T/C (second compound 0.03 µM, first compound 0.316 µM): 91.2% | viability, T/C (second compound 0.03 µM, first compound 1 µM): 109% | viability, T/C (second compound 0.03 µM, first compound 3.16 µM): 0.45% | viability, T/C (second compound 0.03 µM, first compound 10 µM): 0.22% | viability, T/C (second compound 0.0949 µM, first compound 0.0316 µM): 103% | viability, T/C (second compound 0.0949 µM, first compound 0.1 µM): 110% | viability, T/C (second compound 0.0949 µM, first compound 0.316 µM): 106% | viability, T/C (second compound 0.0949 µM, first compound 1 µM): 102% | viability, T/C (second compound 0.0949 µM, first compound 3.16 µM): 0.44% | viability, T/C (second compound 0.0949 µM, first compound 10 µM): 0.27% | viability, T/C (second compound 0.3 µM, first compound 0.0316 µM): 114% | viability, T/C (second compound 0.3 µM, first compound 0.1 µM): 112% | viability, T/C (second compound 0.3 µM, first compound 0.316 µM): 116% | viability, T/C (second compound 0.3 µM, first compound 1 µM): 82.1% | viability, T/C (second compound 0.3 µM, first compound 3.16 µM): 0.46% | viability, T/C (second compound 0.3 µM, first compound 10 µM): 0.29%

CC(C)NCC(C(=O)N1CCN(c2ncnc3c2C(C)CC3O)CC1)c1ccc(Cl)cc1 (centres undefined) + C#Cc1c(F)ccc2cc(O)cc(-c3ncc4c(N5CC6CCC(C5)N6)nc(OCC56CCCN5CC(F)C6)nc4c3F)c12
IC50 (second compound 0.0316 µM): 8800 nM | IC50 (second compound 0.1 µM): 8470 nM | IC50 (second compound 0.316 µM): 7910 nM | IC50 (second compound 1 µM): 7710 nM | IC50 (second compound 3.16 µM): 4600 nM | IC50 (second compound 10 µM): 2130 nM | viability, T/C (second compound 0.0316 µM, first compound 0.0316 µM): 107% | viability, T/C (second compound 0.0316 µM, first compound 0.1 µM): 103% | viability, T/C (second compound 0.0316 µM, first compound 0.316 µM): 108% | viability, T/C (second compound 0.0316 µM, first compound 1 µM): 111% | viability, T/C (second compound 0.0316 µM, first compound 3.16 µM): 99.5% | viability, T/C (second compound 0.0316 µM, first compound 10 µM): 43.8% | viability, T/C (second compound 0.1 µM, first compound 0.0316 µM): 104% | viability, T/C (second compound 0.1 µM, first compound 0.1 µM): 109% | viability, T/C (second compound 0.1 µM, first compound 0.316 µM): 105% | viability, T/C (second compound 0.1 µM, first compound 1 µM): 111% | viability, T/C (second compound 0.1 µM, first compound 3.16 µM): 91.8% | viability, T/C (second compound 0.1 µM, first compound 10 µM): 43% | viability, T/C (second compound 0.316 µM, first compound 0.0316 µM): 113% | viability, T/C (second compound 0.316 µM, first compound 0.1 µM): 110% | viability, T/C (second compound 0.316 µM, first compound 0.316 µM): 110% | viability, T/C (second compound 0.316 µM, first compound 1 µM): 108% | viability, T/C (second compound 0.316 µM, first compound 3.16 µM): 81.5% | viability, T/C (second compound 0.316 µM, first compound 10 µM): 42% | viability, T/C (second compound 1 µM, first compound 0.0316 µM): 114% | viability, T/C (second compound 1 µM, first compound 0.1 µM): 121% | viability, T/C (second compound 1 µM, first compound 0.316 µM): 115% | viability, T/C (second compound 1 µM, first compound 1 µM): 103% | viability, T/C (second compound 1 µM, first compound 3.16 µM): 75.7% | viability, T/C (second compound 1 µM, first compound 10 µM): 42.5% | viability, T/C (second compound 3.16 µM, first compound 0.0316 µM): 107% | viability, T/C (second compound 3.16 µM, first compound 0.1 µM): 101% | viability, T/C (second compound 3.16 µM, first compound 0.316 µM): 94.5% | viability, T/C (second compound 3.16 µM, first compound 1 µM): 97.2% | viability, T/C (second compound 3.16 µM, first compound 3.16 µM): 60.3% | viability, T/C (second compound 3.16 µM, first compound 10 µM): 28.4% | viability, T/C (second compound 10 µM, first compound 0.0316 µM): 81.2% | viability, T/C (second compound 10 µM, first compound 0.1 µM): 82.2% | viability, T/C (second compound 10 µM, first compound 0.316 µM): 89.2% | viability, T/C (second compound 10 µM, first compound 1 µM): 74.1% | viability, T/C (second compound 10 µM, first compound 3.16 µM): 37.2% | viability, T/C (second compound 10 µM, first compound 10 µM): 18.5%
